{"source": "patent US6469052B2", "about": "“Compounds for the photodecontamination of pathogens in blood” (Cerus Corporation, priority 1993, dated 2002)", "key": {"[1]": {"test_system": "Salmonella typhimurium TA1538", "assay": "Ames assay (dark mutagenicity), strain TA1538", "from_the_text": "(§1) The second property that is important in testing a compound for use in methods of the present invention is mutagenicity. The most widely used mutagen/carcinogen screening assay is the Ames test. This assay is described by D. M. Maron and B. N. Ames in Mutation Research 113: 173 ( 1983) and a specific screen is described in detail in Example 17, below. The Ames test utilizes several unique strains of Salmonella typhimurium that are histidine- dependent for growth and that lack the usual DNA repair enzymes. The frequency of normal mutations that render the bacteria independent of histidine (i.e., the frequency of spontaneous revertants) is low. The test allows one to evaluate the impact of a compound on this revertant frequency.\n(§2) In this example the compounds of the present invention are tested for their dark mutagenicity using an Ames assay. The procedures used for the Salmonella mutagenicity test as described in detail by Maron and Ames were followed exactly. Maron, D. M. and B. N. Ames, Mutation Research 113: 173 ( 1983). A brief description for each procedure is given here. The tester strains TA97a, TA98, TA100, TA102, TA1537 and TA1538 were obtained from Dr. Ames. TA97a, TA98, TA1537 and TA1538 are frameshift tester strains. TA100 and TA102 are base-substitution tester strains. Upon receipt each strain was cultured under a variety of conditions to confirm the genotypes specific to the strains.\n(§3) The first tests done with the strains were to determine the range of spontaneous reversion for each of the strains. With each mutagenicity experiment the spontaneous reversion of the tester strains to histidine independence was measured and expressed as the number of spontaneous revertants per plate. This served as the background controls.\n(§4) For all experiments, the pre-incubation procedure was used. In this procedure one vial of each tester strain was thawed and 20 μL of this culture was added to 6 mL of Oxoid Nutrient Broth #2. This solution was allowed to shake for 10 hours at 37° C. In the pre-incubation procedure, 0.1 mL of this overnight culture was added to each of the required number of sterile test tubes. To half of the tubes 0.5 mL of a 10% S-9 solution containing Aroclor 1254 induced rat liver extract (Molecular Toxicology Inc., Annapolis, Md.), and MgCl2, KCl, glucose-6-phosphate, NADP, and sodium phosphate buffer (Sigma, St. Louis, Mo.) were added. To the other half of the tubes 0.5 mL of 0.2M sodium phospate buffer, pH 7.4, was used in place of the S-9 mixture (the -S9 samples). Finally 0.1 mL of the test solution containing either 0, 0.1, 0.5, 1, 5, 10, 50, 100, 250, or 500 μg/mL of the test compound was added. The 0.7 mL mixture was vortexed and then pre-incubated while shaking for 20 minutes at 37° C. After shaking, 2 mL of molten top agar supplemented with histidine and biotin were added to the 0.7 mL mixture and immediately poured onto a minimal glucose agar plate (volume of base agar was 20 mL). The top agar was allowed 30 minutes to solidify and then the plates were inverted and incubated for 44 hours at 37° C. After incubation the number of revertant colonies on each plate were counted. […] (“n” represents the number of replicates performed for each data point.)\n(§5) Maron and Ames (1983) describe the conflicting views with regard to the statisical treatment of data generated from the test."}, "[2]": {"test_system": "GMP-140 (p-selectin) on platelets", "assay": "Platelet function: GMP-140 expression (flow cytometry, CD62)", "type": "cell-based, human", "conditions": "100 μM compound, 5 Joules/cm^2, 5 days storage", "method": "To measure the effects of the present compounds and methods of decontamination on platelet function using these four indicators, four samples were prepared for each compound tested, two control samples and two containing compound. Three units of human platelets were obtained from the Sacramento Blood Center, Sacramento, Calif. These were each transferred under sterile conditions to 50 ml centrifuge tubes, then aliquots of each unit were transferred into a second set of 50 ml sterile centrifuge tubes. To each centrifuge tube containing platelet concentrate (PC), an aliquot of compound stock was added to reach a final concentration of 100 μM of compound. […] The samples were pipetted gently up and down to mix. Then aliquots (either 3 ml or 8 ml) of each sample was transferred to two sterile Teflon™ Medi-bags™ (American Fluoroseal Co., Silver Springs, Md.) (presently owned by The West Company, Lionville, Pa.). Samples were treated in one of two different sized bags, having either 3 ml or 8 ml capacity. […] For each compound tested, two control samples without compound were prepared by again removing aliquots of platelet concentrate (17 ml if using an 8 ml bag, […] if using a 3 ml bag) from the same one of the first set of 50 ml centrifuge tubes from which the compound sample was drawn, and dividing into Medibags, as before. One of each pair of Medibags containing a compound, and one of each pair of control Medibags, were illuminated for 5 Joules/cm^2 on the device described in Example 1, above. Then all experimental and control Medibags were placed on a platelet shaker for storage for 5 days. The same experiments were repeated several times to obtain more statistically meaningful data, as represented by “n”, the number of data points represented, in the graphs of FIGS. 21-24, discussed below."}, "[3]": {"test_system": "Salmonella typhimurium TA98", "assay": "Ames assay (dark mutagenicity), strain TA98", "from_the_text": "as §1, §2, §3, §4, §5"}, "[4]": {"test_system": "Salmonella typhimurium TA100", "from_the_text": "as §1, §2, §3, §4, §5"}}, "note": "Read-outs that look alike come from different tables or passages of the source."}
{"compound": "Cc1oc2c(C)c3oc(=O)cc(C)c3cc2c1COCCN", "note": "[Compound 2, 4′-(4-amino-2-oxa)butyl-4,5′,8-trimethylpsoralen]", "values": [{"measurement": "revertants per plate", "setting": "[1]; TA1538 −S9, 5 μg/plate", "result": "−8"}, {"measurement": "revertants per plate", "setting": "[1]; TA1538 −S9, 10 μg/plate", "result": "−13"}, {"measurement": "GMP-140 expression: sample treated with light and psoralen (PCD) versus day 5 untreated control (D5)", "setting": "[2]", "result": "little or no difference"}, {"measurement": "revertants per plate", "setting": "[3]; TA98 +S9, 10 μg/plate", "result": 24}, {"measurement": "revertants per plate", "setting": "[3]; TA98 +S9, 50 μg/plate", "result": 35}, {"measurement": "revertants per plate", "setting": "[3]; TA98 +S9, 100 μg/plate", "result": 53}, {"measurement": "revertants per plate", "setting": "[3]; TA98 +S9, 250 μg/plate", "result": 69}, {"measurement": "revertants per plate", "setting": "[3]; TA98 +S9, 500 μg/plate", "result": 63}, {"measurement": "revertants per plate", "setting": "[3]; TA98 −S9, 10 μg/plate", "result": 28}, {"measurement": "revertants per plate", "setting": "[3]; TA98 −S9, 50 μg/plate", "result": 52}, {"measurement": "revertants per plate", "setting": "[3]; TA98 −S9, 100 μg/plate", "result": 39}, {"measurement": "revertants per plate", "setting": "[3]; TA98 −S9, 250 μg/plate", "result": 29}, {"measurement": "revertants per plate", "setting": "[3]; TA98 −S9, 500 μg/plate", "result": 6}, {"measurement": "revertants per plate", "setting": "[4]; TA100 +S9, 5 μg/plate", "result": "−18"}, {"measurement": "revertants per plate", "setting": "[4]; TA100 +S9, 10 μg/plate", "result": 1}, {"measurement": "revertants per plate", "setting": "[4]; TA100 +S9, 50 μg/plate", "result": 115}, {"measurement": "revertants per plate", "setting": "[4]; TA100 +S9, 100 μg/plate", "result": 96}, {"measurement": "revertants per plate", "setting": "[4]; TA100 −S9, 5 μg/plate", "result": 103}, {"measurement": "revertants per plate", "setting": "[4]; TA100 −S9, 10 μg/plate", "result": 46}, {"measurement": "revertants per plate", "setting": "[4]; TA100 −S9, 50 μg/plate", "result": 182}, {"measurement": "revertants per plate", "setting": "[4]; TA100 −S9, 100 μg/plate", "result": 121}]}
{"compound": "Cc1oc2c(C)c3oc(=O)cc(C)c3cc2c1CNCCCCN", "note": "[Compound 6, 4′-(6-amino-2-aza)hexyl-4,5′,8-trimethylpsoralen]", "values": [{"measurement": "revertants per plate", "setting": "[1]; TA1538 −S9, 5 μg/plate", "result": "−5"}, {"measurement": "revertants per plate", "setting": "[1]; TA1538 −S9, 10 μg/plate", "result": "−2"}, {"measurement": "GMP-140 expression: sample treated with light and psoralen (PCD) versus day 5 untreated control (D5)", "setting": "[2]", "result": "little or no difference"}, {"measurement": "revertants per plate", "setting": "[3]; TA98 −S9, 10 μg/plate", "result": 12}, {"measurement": "revertants per plate", "setting": "[3]; TA98 −S9, 50 μg/plate", "result": 12}, {"measurement": "revertants per plate", "setting": "[3]; TA98 −S9, 100 μg/plate", "result": 22}, {"measurement": "revertants per plate", "setting": "[3]; TA98 −S9, 250 μg/plate", "result": 12}, {"measurement": "revertants per plate", "setting": "[3]; TA98 −S9, 500 μg/plate", "result": 9}, {"measurement": "revertants per plate", "setting": "[4]; TA100 +S9, 5 μg/plate", "result": 12}, {"measurement": "revertants per plate", "setting": "[4]; TA100 +S9, 10 μg/plate", "result": "−5"}, {"measurement": "revertants per plate", "setting": "[4]; TA100 +S9, 50 μg/plate", "result": 24}, {"measurement": "revertants per plate", "setting": "[4]; TA100 +S9, 100 μg/plate", "result": "−2"}, {"measurement": "revertants per plate", "setting": "[4]; TA100 +S9, 250 μg/plate", "result": "−38"}]}
